How the values were obtained:
[1] = molecular target: T1, Lecithin retinol acyltransferase (Bos taurus) (UniProt Q9BGL2); conditions: at 100 µM
T1 sequence (whole entry): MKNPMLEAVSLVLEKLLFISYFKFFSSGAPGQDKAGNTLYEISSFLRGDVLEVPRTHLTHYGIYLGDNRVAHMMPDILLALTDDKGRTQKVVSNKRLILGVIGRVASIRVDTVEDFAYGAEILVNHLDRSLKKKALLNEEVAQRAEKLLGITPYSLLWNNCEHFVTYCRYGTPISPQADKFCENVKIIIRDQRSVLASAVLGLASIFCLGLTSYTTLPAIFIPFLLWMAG
Description: Inhibition of LRAT in bovine RPE microsomes at 100 uM using retinol substrate in presence of Palmitoyl-CoA incubated for 5 mins by HPLC analysis relative to control

[2] = molecular target: T2, Diacylglycerol O-acyltransferase 1 (Bos taurus) (UniProt Q8MK44); conditions: at 100 µM;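 note: ARAT activity in bovine RPE microsomes with retinol as substrate and dilauroyl phosphatidylcholine present, 5 min incubation, HPLC readout, inhibition expressed versus control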
T2 sequence (whole entry): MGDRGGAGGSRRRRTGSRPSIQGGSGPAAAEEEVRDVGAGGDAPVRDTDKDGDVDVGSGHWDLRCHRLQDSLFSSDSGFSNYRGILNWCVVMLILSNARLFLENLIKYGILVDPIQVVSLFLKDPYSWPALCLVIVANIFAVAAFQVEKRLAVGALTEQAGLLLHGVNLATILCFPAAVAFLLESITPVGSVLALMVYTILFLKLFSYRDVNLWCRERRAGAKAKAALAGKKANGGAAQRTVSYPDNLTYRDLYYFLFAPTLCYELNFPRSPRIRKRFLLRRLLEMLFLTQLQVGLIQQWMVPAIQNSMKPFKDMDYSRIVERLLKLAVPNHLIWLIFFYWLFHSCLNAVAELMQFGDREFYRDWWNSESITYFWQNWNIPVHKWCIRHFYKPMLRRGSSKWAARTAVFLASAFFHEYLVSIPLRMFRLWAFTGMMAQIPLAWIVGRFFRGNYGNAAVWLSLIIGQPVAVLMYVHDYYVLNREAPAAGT
Description: Inhibition of ARAT in bovine RPE microsomes at 100 uM using retinol substrate in presence of dilauroyl-phosphatidyl choline incubated for 5 mins by HPLC analysis relative to control

[3] = species: Homo sapiens
Description: Inhibition of transglutaminase in human keratinocytes in presence of 10 uM retinal relative to retinal alone

[4] = species: Homo sapiens; experiment: Inhibition of transglutaminase in human keratinocytes assessed as mean transglutaminase activity level at 1.65 10^-7M in presence of 10 uM retinal relative to retinal alone; type: cell-based; parameters: scale not given: the % may be the effect or the level left
[5] = species: Homo sapiens; experiment: Inhibition of transglutaminase in human keratinocytes assessed as mean transglutaminase activity level at 1.0 10^-3M in presence of 10 uM retinal relative to retinal alone; type: cell-based; parameters: scale not given: the % may be the effect or the level left
[6] = species: Homo sapiens; experiment: Inhibition of transglutaminase in human keratinocytes assessed as mean transglutaminase activity level at 4.1 10^-5M in presence of 10 uM retinal relative to retinal alone; type: cell-based; parameters: scale not given: the % may be the effect or the level left
[7] = species: Homo sapiens; experiment: Inhibition of transglutaminase in human keratinocytes assessed as mean transglutaminase activity level at 8.2 10^-6M in presence of 10 uM retinal relative to retinal alone; type: cell-based; parameters: scale not given: the % may be the effect or the level left
[8] = species: Homo sapiens; experiment: Inhibition of transglutaminase in human keratinocytes assessed as mean transglutaminase activity level at 3.73 10^-4M in presence of 10 uM retinal relative to retinal alone; type: cell-based; parameters: scale not given: the % may be the effect or the level left
[9] = species: Homo sapiens; experiment: Inhibition of transglutaminase in human keratinocytes assessed as mean transglutaminase activity level at 1.1 10^-4M in presence of 10 uM retinal relative to retinal alone; type: cell-based; parameters: scale not given: the % may be the effect or the level left
[10] = species: Homo sapiens; experiment: Inhibition of transglutaminase in human keratinocytes assessed as mean transglutaminase activity level at 3.29 10^-7M in presence of 10 uM retinal relative to retinal alone; type: cell-based; parameters: scale not given: the % may be the effect or the level left
[11] = molecular target: T3, Cellular retinoic acid-binding protein 2 (Homo sapiens) (UniProt P29373); experiment: Inhibition of radioactive all-trans retinoic acid binding to CRABP2 (unknown origin) expressed in Escherichia coli BLR(DE3)pLys incubated for 1 hr by scintillation counting assay; conditions: concentration not given here
T3 sequence (whole entry): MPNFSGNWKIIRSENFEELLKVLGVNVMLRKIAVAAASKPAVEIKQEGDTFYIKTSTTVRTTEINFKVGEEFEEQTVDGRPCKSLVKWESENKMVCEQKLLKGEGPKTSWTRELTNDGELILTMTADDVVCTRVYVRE

[12] = species: Homo sapiens; experiment: Inhibition of transglutaminase in human keratinocytes assessed as mean transglutaminase activity level at 1.23 10^-5M in presence of 10 uM retinal relative to retinal alone; type: cell-based; parameters: scale not given: the % may be the effect or the level left
[13] = species: Homo sapiens; experiment: Inhibition of transglutaminase in human keratinocytes assessed as mean transglutaminase activity level at 5.0 10^-8M in presence of 10 uM retinal relative to retinal alone; type: cell-based; parameters: scale not given: the % may be the effect or the level left
[14] = species: Homo sapiens; experiment: Inhibition of transglutaminase in human keratinocytes assessed as mean transglutaminase activity level at 3.3 10^-6M in presence of 10 uM retinal relative to retinal alone; type: cell-based; parameters: scale not given: the % may be the effect or the level left
[15] = species: Homo sapiens; experiment: Inhibition of transglutaminase in human keratinocytes assessed as mean transglutaminase activity level at 1.23 10^-7M in presence of 10 uM retinal relative to retinal alone; type: cell-based; parameters: scale not given: the % may be the effect or the level left
[16] = species: Rattus norvegicus; experiment: Inhibition of retinal reductase in Sprague-Dawley rat liver microsomes at 100 uM using all-trans retinaldehyde and NADPH by HPLC analysis relative to control
[17] = species: Homo sapiens; experiment: Inhibition of transglutaminase in human keratinocytes assessed as mean transglutaminase activity level at 1.65 10^-9M in presence of 10 uM retinal relative to retinal alone; type: cell-based; parameters: scale not given: the % may be the effect or the level left
[18] = species: Homo sapiens; experiment: Inhibition of transglutaminase in human keratinocytes assessed as mean transglutaminase activity level at 3.73 10^-7M in presence of 10 uM retinal relative to retinal alone; type: cell-based; parameters: scale not given: the % may be the effect or the level left
[19] = species: Homo sapiens; experiment: Inhibition of transglutaminase in human keratinocytes assessed as mean transglutaminase activity level at 1 10^-5M in presence of 10 uM retinal relative to retinal alone; type: cell-based; parameters: scale not given: the % may be the effect or the level left
[20] = species: Homo sapiens; experiment: Inhibition of transglutaminase in human keratinocytes assessed as mean transglutaminase activity level at 3.29 10^-9M in presence of 10 uM retinal relative to retinal alone; type: cell-based; parameters: scale not given: the % may be the effect or the level left
[21] = species: Homo sapiens; experiment: Inhibition of transglutaminase in human keratinocytes assessed as mean transglutaminase activity level at 4.1 10^-8M in presence of 10 uM retinal relative to retinal alone; type: cell-based; parameters: scale not given: the % may be the effect or the level left
[22] = species: Homo sapiens; experiment: Inhibition of transglutaminase in human keratinocytes assessed as mean transglutaminase activity level at 1.1 10^-6M in presence of 10 uM retinal relative to retinal alone; type: cell-based; parameters: scale not given: the % may be the effect or the level left
[23] = species: Homo sapiens; experiment: Inhibition of transglutaminase in human keratinocytes assessed as mean transglutaminase activity level at 8.2 10^-8M in presence of 10 uM retinal relative to retinal alone; type: cell-based; parameters: scale not given: the % may be the effect or the level left
[24] = species: Homo sapiens; experiment: Inhibition of transglutaminase in human keratinocytes assessed as mean transglutaminase activity level at 3 10^-5M in presence of 10 uM retinal relative to retinal alone; type: cell-based; parameters: scale not given: the % may be the effect or the level left
[25] = molecular target: T1, Lecithin retinol acyltransferase (Bos taurus); experiment: Inhibition of LRAT in bovine RPE microsomes at 10 uM using retinol substrate in presence of Palmitoyl-CoA incubated for 5 mins by HPLC analysis relative to control

CC(=O)/C(C)=C/C1C(C)=CCCC1(C)C (stereo not drawn)
inhibition [1]: 38%

CCC=CCCC=CC=O
inhibition [2]: 20%

CC(=O)N1CCN(c2ccc(OCC3COC(Cn4ccnc4)(c4ccc(Cl)cc4Cl)O3)cc2)CC1 (stereo not drawn)
IC20 [3]: 5.52 ×10⁻⁸ M

CCCCCCCCCCCCCC(=O)N(C)CC(=O)O
inhibition [1]: 11% | inhibition [2]: 41%

O=c1c(O)c(-c2ccc(O)c(O)c2)oc2cc(O)cc(O)c12
IC20 [3]: 5.11 ×10⁻⁵ M

CCCCCCCCCCCC1=NCCN1CCO
IC20 [3]: 2.69 ×10⁻⁷ M

CC1=CCCC(C)(C)C1/C=C/C(=O)CC(C)C (stereo not drawn)
inhibition [1]: 45% | inhibition [2]: 8%

O=C1C[C@@H](c2ccc(O)cc2)Oc2cc(O)cc(O)c21
inhibition [1]: 14%

CC(C)=CCC/C(C)=C/CO
IC20 [3]: 4.72 ×10⁻³ M

CCCCCCCC/C=C\CCCCCCCC[N+](C)(C)CC(=O)[O-]
IC20 [3]: 1.08 ×10⁻⁵ M | inhibition [2]: 47%

CCCCCCCCCCCCCC(=O)O
Activity [4]: 88.9% | IC20 [3]: 1.05 ×10⁻⁵ M | Activity [5]: -2% | Activity [6]: 75.1% | Activity [7]: 74.2% | Activity [8]: -6% | Activity [9]: -8% | Activity [10]: 101%

CCCCCCCC/C=C/CCCCCCCC(=O)O
Activity [4]: 58% | IC20 [3]: 5.88 ×10⁻⁵ M | Activity [5]: 12.8% | Activity [6]: 58.2% | Activity [8]: 13.8% | inhibition [11]: > 50% | Activity [9]: 8% | Activity [12]: 80.9% | Activity [10]: 69% | Activity [13]: 50.5%

CCOC(=O)C1=C(C)C=CCC1(C)C
inhibition [1]: 49%

COc1cc(NS(C)(=O)=O)ccc1Nc1c2ccccc2nc2ccccc12
Activity [14]: 64% | Activity [15]: 65% | inhibition [16]: 22% | IC20 [3]: 3.3 ×10⁻⁶ M | Activity [17]: 113% | Activity [18]: 109% | Activity [19]: 1.8% | Activity [20]: 92% | Activity [21]: 110% | Activity [22]: 84% | Activity [23]: 131% | Activity [24]: -10%

CCN(CC)CC(=O)Nc1c(C)cccc1C
inhibition [1]: 0%

C/C=C/C(=O)C1C(C)C=CCC1(C)C (stereo not drawn)
inhibition [25]: 64% | inhibition [1]: 95%

CCCCCCCCCCCC(=O)NCCC[N+](C)(C)CC(=O)[O-]
inhibition [2]: 25%

CCCCCCCC/C=C\CCCCCCCC1=NCCN1CCO
IC20 [3]: 5.65 ×10⁻⁶ M

CC(=O)/C=C/C1C(C)=CCCC1(C)C (stereo not drawn)
IC20 [3]: 1.42 ×10⁻⁴ M

CC1=CC[C@H](CC[C@H](C)CO)C1(C)C
inhibition [1]: 75% | inhibition [2]: 70%

CCCCC/C=C\C/C=C\CCCCCCCC(=O)NCCCN(C)C
inhibition [1]: 75% | inhibition [2]: 69%

CC1(C)[C@@H](OC(=O)CCC(=O)O)CC[C@]2(C)[C@H]3C(=O)C=C4[C@@H]5C[C@@](C)(C(=O)O)CC[C@]5(C)CC[C@@]4(C)[C@]3(C)CC[C@@H]12
Activity [14]: 51.7% | Activity [15]: 81% | inhibition [16]: 26% | IC20 [3]: 2 ×10⁻⁷ M | Activity [17]: 77.8% | Activity [18]: 126% | Activity [19]: 27.3% | Activity [20]: 64% | Activity [21]: 135% | Activity [22]: 158% | Activity [23]: 112% | Activity [24]: -7.1%

CCCCC/C=C\C/C=C\CCCCCCCC(=O)NC(C)c1ccccc1 (stereo not drawn)
inhibition [1]: 43% | inhibition [2]: 64%

Reference: ChEMBL document CHEMBL4420071, “Method for treating skin with retinoids and retinoid boosters” (2013)
